Measurements: ChEMBL document CHEMBL1143213, “Anticancer activity of (1,2,3,5-tetrahydro-4,1-benzoxazepine-3-yl)-pyrimidines and -purines against the MCF-7 cell line: Preliminary cDNA microarray studies” (Bioorg Med Chem Lett, 2008)
Active and inactive are the calls of the source. The rule behind the calls is not given here.

tested on: MCF7; assay: Induction of GP132 gene expression in human MCF7 cells by microarray; format: functional, cell-based; conditions: not given

| Compound | Activity |
| --- | --- |
| O=C(OCC1c2ccccc2-c2ccccc21)N1CC(n2cnc3c(Cl)ncnc32)OCc2ccccc21 (racemic) | Active |

tested on: MCF7; assay: Induction of ERN1 gene expression in human MCF7 cells by microarray; format: functional, cell-based; conditions: not given

| Compound | Activity |
| --- | --- |
| O=C(OCC1c2ccccc2-c2ccccc21)N1CC(n2cnc3c(Cl)ncnc32)OCc2ccccc21 (racemic) | Active |

tested on: MCF7; assay: Down regulation of RAC1 gene expression in human MCF7 cells by microarray; format: functional, cell-based; conditions: not given

| Compound | Activity |
| --- | --- |
| O=[N+]([O-])c1ccc(S(=O)(=O)N2CC(n3cnc4ncnc(Sc5ccccc5)c43)OCc3ccccc32)cc1 (stereo unspecified) | Active |

tested on: MCF7; assay: Antiproliferative activity against human MCF7 cells; format: functional, cell-based; conditions: Homo sapiens, MCF7

| Compound | IC50 |
| --- | --- |
| Nc1ccccc1S(=O)(=O)N1CC(n2cnc3ncnc(Cl)c32)OCc2ccccc21 (stereo unspecified) | 9.14 µM |
| Nc1ccc(S(=O)(=O)N2CC(n3cc(F)c(=O)[nH]c3=O)OCc3ccccc32)cc1 (stereo unspecified) | 14.4 µM |
| O=C(OCC1c2ccccc2-c2ccccc21)N1CC(n2cnc3ncnc(O)c32)OCc2ccccc21 (stereo unspecified) | 53.6 µM |
| COC(CN(c1ccccc1CO)S(=O)(=O)c1ccccc1[N+](=O)[O-])n1ccc(=O)[nH]c1=O (stereo unspecified) | 64.8 µM |
| O=c1ccn(C2CN(S(=O)(=O)c3ccc([N+](=O)[O-])cc3)c3ccccc3CO2)c(=O)[nH]1 (stereo unspecified) | 39.8 µM |
| Nc1ccccc1S(=O)(=O)N1CC(n2cc(F)c(=O)[nH]c2=O)OCc2ccccc21 (stereo unspecified) | 54.8 µM |
| O=c1ccn(C2CN(S(=O)(=O)c3ccccc3[N+](=O)[O-])c3ccccc3CO2)c(=O)[nH]1 (stereo unspecified) | 45.2 µM |
| COC(CN(c1ccccc1CO)S(=O)(=O)c1ccc([N+](=O)[O-])cc1)n1c(=O)cc[nH]c1=O (stereo unspecified) | 55.2 µM |
| COC(CN(c1ccccc1CO)S(=O)(=O)c1ccccc1[N+](=O)[O-])n1cc(F)c(=O)[nH]c1=O (stereo unspecified) | 91 µM |
| O=c1[nH]cc(F)c(=O)n1C1CN(S(=O)(=O)c2ccccc2[N+](=O)[O-])c2ccccc2CO1 (stereo unspecified) | 22.6 µM |
| COC(CN(c1ccccc1CO)S(=O)(=O)c1ccc([N+](=O)[O-])cc1)n1cc(F)c(=O)[nH]c1=O (stereo unspecified) | 55.2 µM |
| O=[N+]([O-])c1ccccc1S(=O)(=O)N1CC(n2cnc3ncnc(O)c32)OCc2ccccc21 (stereo unspecified) | 19.7 µM |
| O=[N+]([O-])c1ccccc1S(=O)(=O)N1CC(n2cnc3ncnc(Sc4ccccc4)c32)OCc2ccccc21 (stereo unspecified) | 2.59 µM |
| O=c1[nH]c(=O)n(C2CNc3ccccc3CO2)cc1F (stereo unspecified) | > 100 µM |
| COC(CN(C(=O)c1ccccc1)c1ccccc1CO)n1cc(F)c(=O)[nH]c1=O (stereo unspecified) | 16.1 µM |
| O=c1[nH]cc(F)c(=O)n1C1CN(S(=O)(=O)c2ccc([N+](=O)[O-])cc2)c2ccccc2CO1 (stereo unspecified) | 19.8 µM |
| O=c1[nH]cc(F)c(=O)n1C1CNc2ccccc2CO1 (stereo unspecified) | 72.4 µM |
| O=c1cc[nH]c(=O)n1C1CN(S(=O)(=O)c2ccccc2[N+](=O)[O-])c2ccccc2CO1 (stereo unspecified) | 50.9 µM |
| COC(CN(c1ccccc1CO)S(=O)(=O)c1ccc([N+](=O)[O-])cc1)n1cnc2c(Cl)ncnc21 (stereo unspecified) | 18.7 µM |
| O=[N+]([O-])c1ccc(S(=O)(=O)N2CC(n3cnc4ncnc(O)c43)OCc3ccccc32)cc1 (stereo unspecified) | > 100 µM |
| COC(CN(c1ccccc1CO)S(=O)(=O)c1ccc([N+](=O)[O-])cc1)n1ccc(=O)[nH]c1=O (stereo unspecified) | 45.8 µM |
| c1ccc(Sc2ncnc3ncn(C4CNc5ccccc5CO4)c23)cc1 (stereo unspecified) | 48.9 µM |
| O=[N+]([O-])c1ccc(S(=O)(=O)N2CC(n3cnc4c(Cl)ncnc43)OCc3ccccc32)cc1 (stereo unspecified) | 2.73 µM |
| COC(CNc1ccccc1CO)n1cc(F)c(=O)[nH]c1=O (stereo unspecified) | 36 µM |
| O=c1cc[nH]c(=O)n1C1CN(S(=O)(=O)c2ccc([N+](=O)[O-])cc2)c2ccccc2CO1 (stereo unspecified) | 44.3 µM |
| COC(CN(c1ccccc1CO)S(=O)(=O)c1ccccc1N)n1cc(F)c(=O)[nH]c1=O (stereo unspecified) | > 100 µM |
| O=c1[nH]c(=O)n(C2CN(S(=O)(=O)c3ccccc3[N+](=O)[O-])c3ccccc3CO2)cc1F (stereo unspecified) | 19.7 µM |
| Nc1ccccc1S(=O)(=O)N1CC(n2c(=O)[nH]cc(F)c2=O)OCc2ccccc21 (stereo unspecified) | 43.7 µM |
| O=c1[nH]c(=O)n(C2CN(S(=O)(=O)c3ccc([N+](=O)[O-])cc3)c3ccccc3CO2)cc1F (stereo unspecified) | 19.3 µM |

Next, values leading:

| IC50 | Compound |
| --- | --- |
| 2.1 µM | O=[N+]([O-])c1ccccc1S(=O)(=O)N1CC(n2cnc3c(Cl)ncnc32)OCc2ccccc21 (stereo unspecified) |
| 1.25 µM | COc1ccc2c(c1)COC(n1cc(F)c(=O)[nH]c1=O)CO2 (stereo unspecified) |
| 1.25 µM | Ic1ncnc2c1ncn2C1COc2ccccc2CO1 (stereo unspecified) |
| 1.25 µM | Clc1ncnc2ncn(C3COc4ccccc4CO3)c12 (stereo unspecified) |
| 1.25 µM | Clc1ncnc2c1ncn2C1CSc2ccccc2CO1 (stereo unspecified) |
| 1.25 µM | O=c1ccn(C2COc3ccccc3CO2)c(=O)[nH]1 (stereo unspecified) |
| 1.25 µM | Ic1ncnc2ncn(C3COc4ccccc4CO3)c12 (stereo unspecified) |
| 1.25 µM | O=S1(=O)CC(n2cnc3c(Cl)ncnc32)OCc2ccccc21 (stereo unspecified) |
| 1.25 µM | Clc1nc(Cl)c2ncn(C3COc4ccccc4CO3)c2n1 (stereo unspecified) |
| 1.25 µM | Clc1ncnc2c1ncn2C1COc2ccccc2CO1 (stereo unspecified) |
| 1.25 µM | FC(F)(F)c1ncnc2c1ncn2C1COc2ccccc2CO1 (stereo unspecified) |
| 1.25 µM | Clc1nc(Cl)c2c(ncn2C2COc3ccccc3CO2)n1 (stereo unspecified) |
| 1.25 µM | Clc1ncnc2ncn(C3CSc4ccccc4CO3)c12 (stereo unspecified) |
| 1.22 µM | O=[N+]([O-])c1ccc(S(=O)(=O)N2CC(n3cnc4ncnc(Cl)c43)OCc3ccccc32)cc1 (stereo unspecified) |
| 0.92 µM | O=[N+]([O-])c1ccccc1S(=O)(=O)N1CC(n2cnc3ncnc(Cl)c32)OCc2ccccc21 (stereo unspecified) |
| 0.86 µM | O=[N+]([O-])c1ccc(S(=O)(=O)N2CC(n3cnc4ncnc(Sc5ccccc5)c43)OCc3ccccc32)cc1 (stereo unspecified) |
| 0.84 µM | O=C(OCC1c2ccccc2-c2ccccc21)N1CC(n2cnc3ncnc(Cl)c32)OCc2ccccc21 (stereo unspecified) |
| 0.67 µM | O=C(OCC1c2ccccc2-c2ccccc21)N1CC(n2cnc3c(Cl)ncnc32)OCc2ccccc21 (racemic) |

same assay, conditions: mcf7

| IC50 | Compound |
| --- | --- |
| 11.3 µM | COC(CN(c1ccccc1CO)S(=O)(=O)c1ccccc1[N+](=O)[O-])n1cnc2c(Cl)ncnc21 (stereo in doubt; 51) |
